Measurements reported in patent US9840493B2, “Modified amino acids comprising tetrazine functional groups, methods of preparation, and methods of their use” (SUTRO BIOPHARMA, INC., priority 2013, dated 2017).
In brackets after ≈: the same amount, converted by molar mass. Like-named read-outs stand apart in the source and are kept apart here.

Columns and labels:
[1] = Solubility in phosphate buffered saline pH 7.4 at room temperature; assay type: physicochemical; details: PBS pH 7.4, room temperature; for solubility: phosphate buffered saline, aqueous buffer, thermodynamic from solid
Description: This example describes the solubility of three non-natural amino acids comprising tetrazine functional groups in phosphate buffered saline solution, with a pH of 7.4 (PBS). The example also illustrates and discusses the useful increased solubility of the pyridyl tetrazine amino acids provided herein when compared to a phenyl tetrazine-comprising non-natural amino acid of the art.
A suspension of AB 4091 was formed by adding 1.8 mg of AB 4091 to 5 mL of PBS. The suspension was vortexed for five minutes and sonicated for two minutes. Suspended particles remained. Additional PBS was added to the suspension in small portions, with vortexing, to reach a total volume of 25 mL of PBS. This mixture remained cloudy after shaking overnight at room temperature and turned clear following the addition of 2 mL of PBS with vortexing. Clarity of the solution was determined by visual inspection.
(§1) A solution of compound (9) was formed by adding 8.3 mg of compound (9) to 200 μL of PBS to form a homogeneous solution. An additional 11.5 mg of compound (9) was added to this solution, in small portions, over a period of 20 minutes, with vortexing. The solution remained clear after vortexing, with no particulates or cloudiness observed. The maximum solubility of compound (9) was not reached, due to its high solubility and the limited amount of the compound available.
as §1, with “compound (6)” for “compound (9)”, “adding 8.7” for “adding 8.3”, “a homogenous” for “a homogeneous”, “additional 26.9” for “additional 11.5”, “of 25” for “of 20”

tRNA synthetase 2A9 = target: T1, tRNA synthetase 2A9 (Methanocaldococcus jannaschii, UniProt Q57834, D158G/H70A/L162S/L65V/Q109S/Y32G); test: Cell-free GFP (K49TAG) expression assay: incorporation of non-natural amino acid by tRNA synthetase 2A9; assay type: biochemical, Methanococcus jannaschii; details: 2-4 μM 2A9, compound of formula 6 at 1 mM, 30° C., 12 h, ex 476 nm / em 510 nm
T1 construct: made in house
Description: (§2) This example provides two novel tRNA synthetases useful with tetrazine-containing amino acids described herein. These two synthetases, designated “2A2” (SEQ ID NO: 4) and “2A9” (SEQ ID NO: 5) were produced by mutagenesis of wild-type tyrosyl-tRNA synthetase (TyrRS) from Methanococcus jannaschii (SEQ ID NO:3). Mutagenesis was performed by assembling overlapping oligonucleotides encoding the mutations by polymerase chain reaction (PCR). Mutants were screened utilizing the green fluorescent protein expression assay described below.
(§3) The ability of the novel tRNA synthetases to incorporate modified amino acids into a polypeptide was evaluated in cell-free protein synthesis reactions comprising DNA encoding SUPERFOLDER green fluorescent protein (GFP). The codon encoding position 49 of the GFP polypeptide, which normally encodes a lysine residue, was substituted with an amber stop codon (TAG). Full-length GFP is expressed only if the novel tRNA synthetases incorporate s modified amino acid into the polypeptide chain. The level of expression of full-length GFP can be evaluated by measuring fluorescence.
(§4) The GFP DNA containing the TAG stop codon was expressed in cell-free protein synthesis reactions as described in Zawada et al., 2011, Biotechnol. Bioeng. […]

tRNA synthetase 2A2 = target: T2, tRNA synthetase 2A2 (Methanocaldococcus jannaschii, UniProt Q57834, D158V/F108W/H70A/I159A/L162V/L65V/Q109S/Y32L); test: Cell-free GFP (K49TAG) expression assay: incorporation of non-natural amino acid by tRNA synthetase 2A2; assay type: biochemical, Methanococcus jannaschii; details: 4 μM 2A2, compound of formula 9 at 4 mM, 30° C., 12 h, ex 476 nm / em 510 nm
T2 construct: made in house
Description: as §2, §3, §4

[2] = solution remained clear, read-out: final concentration achieved (maximum solubility not reached)

T2 sequence (Q57834 whole entry Y32L/L65V/H70A/F108W/Q109S/D158V/I159A/L162V): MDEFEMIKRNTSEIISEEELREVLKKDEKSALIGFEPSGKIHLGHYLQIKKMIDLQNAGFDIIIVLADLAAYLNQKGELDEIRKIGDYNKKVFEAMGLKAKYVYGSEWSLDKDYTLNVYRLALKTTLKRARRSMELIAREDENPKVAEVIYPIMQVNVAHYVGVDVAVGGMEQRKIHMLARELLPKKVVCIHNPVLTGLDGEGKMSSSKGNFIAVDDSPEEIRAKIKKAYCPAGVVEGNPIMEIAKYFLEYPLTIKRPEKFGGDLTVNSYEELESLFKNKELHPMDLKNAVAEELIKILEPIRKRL
T1 sequence (Q57834 whole entry Y32G/L65V/H70A/Q109S/D158G/L162S): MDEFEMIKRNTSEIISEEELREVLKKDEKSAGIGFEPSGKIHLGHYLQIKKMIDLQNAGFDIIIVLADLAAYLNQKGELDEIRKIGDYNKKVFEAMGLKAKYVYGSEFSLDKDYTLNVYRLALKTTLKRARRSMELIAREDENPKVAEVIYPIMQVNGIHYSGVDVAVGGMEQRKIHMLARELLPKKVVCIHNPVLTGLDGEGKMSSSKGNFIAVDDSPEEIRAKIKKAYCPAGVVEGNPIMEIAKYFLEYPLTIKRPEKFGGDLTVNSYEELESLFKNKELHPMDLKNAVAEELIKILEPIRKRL

Row | SMILES | solubility relative to the solubility of AB 4091 [1] | solubility [1, 2] [mM] | GFP fluorescence compared with native GFP positive control (tRNA synthetase 2A9) | GFP fluorescence compared with native GFP positive control (tRNA synthetase 2A2) | solubility ([1]; clarity by visual inspection, read-out: solubility) [mM]
1 | Cc1nnc(Nc2ccc(C[C@H](N)C(=O)O)cn2)nn1 [compound (6)] | over 3000 fold | ≥ 647 | approaches that of native GFP |  | 
2 | Cc1nnc(NCc2ccc(C[C@H](N)C(=O)O)nc2)nn1 [compound (9)] | over 1600 fold | ≥ 342 |  | approximately equivalent to that of native GFP | 
3 | Cc1nnc(Nc2ccc(CC(N)C(=O)O)cc2)nn1 (stereo not shown) [AB 4091, reference compound] |  |  |  |  | ~0.215 (≈ 0.059 mg/mL)
